Measurements: patent US20260022246A1, “COLORING AGENT COMPOSITION, FILM, OPTICAL FILTER, AND NEAR INFRARED ABSORBING COMPOUND” (FUJIFILM Corporation, priority 2023, published 2026)

Assays:
Type in all cases: physicochemical
[1] = Evaluation of solubility in methyl ethyl ketone (MEK); set-up: key to Solubility in solvent: A: 1 g or more of the compound was stably dissolved in 300 g of MEK; B: 1 g was not dissolved in 300 g of MEK; X: decomposition was observed by measuring the absorption spectrum after the dissolution; details: for Solubility in solvent: stirred at room temperature for 30 minutes
Procedure: For each of Exemplary Compounds shown in Tables 1 and 2, a predetermined amount of the compound was added to a solvent of methyl ethyl ketone (MEK), and solubility was evaluated according to the following standard by stirring the mixture at room temperature for 30 minutes.
• A: 1 g or more of the compound was stably dissolved in 300 g of MEK. • B: 1 g was not dissolved in 300 g of MEK. • X: decomposition was observed by measuring the absorption spectrum after the dissolution.

[2] = Evaluation of heat stability of polystyrene resin film (hot plate 180° C., 5 minutes); set-up: key to Heat stability of resin composition: absorbance reduction rate of Amax was less than 5%; B: absorbance reduction rate of Amax was 5% or more and less than 10%; C: absorbance reduction rate of Amax was 10% or more and less than 50%; D: absorbance reduction rate of Amax was 50% or more; X: solubility was insufficient, so that the film cannot be produced, which was not evaluable; details: for Heat stability of resin composition: polystyrene resin film on glass, hot plate 180° C. for 5 minutes, absorbance reduction rate at λmax
Procedure: 30 mg of each of Exemplary Compounds and the comparative compounds described in the tables was dissolved in 8.9 g of methyl ethyl ketone and 1.1 g of a polystyrene resin (manufactured by Sigma-Aldrich Co. LLC) to prepare a resin composition.
The obtained resin composition was spin-coated on a glass substrate to form a coating film, and the obtained coating film was dried at 60° C. for 2 minutes to produce a resin film. […]
• A: absorbance reduction rate of Amax was less than 5%. • B: absorbance reduction rate of Amax was 5% or more and less than 10%. • C: absorbance reduction rate of Amax was 10% or more and less than 50%. • D: absorbance reduction rate of Amax was 50% or more. • X: solubility was insufficient, so that the film cannot be produced, which was not evaluable.

[3] = Evaluation of absorption spectrum (maximal absorption wavelength in chloroform solution); details: for Near infrared absorbing property: grade of λmax in chloroform solution; for λmax (maximal absorption wavelength): chloroform solution, 3.0×10^−5 mol/L, 1 mm quartz cell
Procedure: The specific compound is diluted with chloroform to a concentration of […], and an absorbance of the obtained sample solution is measured with a spectrophotometer (UV-3600 Plus, manufactured by Shimadzu Corporation) using a 1 mm quartz cell. A maximal absorption wavelength (Amax) is measured from an absorption spectrum of the sample solution.
For each of Exemplary Compounds shown in Tables 1 and 2, a sample solution was prepared by diluting the compound with chloroform to a concentration of 3.0×10^−5 mol/L, and near infrared absorbability was evaluated.
For each sample solution, an absorbance was measured in a 1 mm quartz cell using a spectrophotometer (UV-3600 Plus, manufactured by Shimadzu Corporation).
A maximal absorption wavelength (Amax) was measured from the absorption spectrum of each sample solution. The results are shown in Tables 1 and 2, and the wavelength of Amax was evaluated according to the following standard.
• A: Amax was 1,150 nm or more. • B: Amax was less than 1,150 nm.

[4] = Evaluation of kneading: transmittance at 1,150 nm of melt-kneaded resin film; details: kneaded with resin under the thermal conditions
Procedure: A resin composition, which was a kneaded material of the specific compound or the comparative compound and a resin, was prepared, and the following kneading evaluation was performed.
The specific compounds and comparative compounds shown in Table 3 below were weighed in the contents shown in Table 3, and a sample obtained by shaking and mixing 12.0 g of the resin shown in Table 3 was prepared. A polycarbonate resin (indicated as Polycarbonate in Table 3), a polystyrene resin, and an acrylic resin were used as the resin. In Table 3, the polycarbonate resin is indicated as Polycarbonate, the polystyrene resin is indicated as Polystyrene, and the acrylic resin is indicated as Acrylic.
The obtained sample was put into a supply port of a biaxial kneader (Labo Plastomill, manufactured by Toyo Seiki Seisaku-sho, Ltd.) and subjected to melt-kneading to obtain a resin composition as a kneaded material. The obtained resin composition was pressed using a heat press machine to obtain a resin film having a thickness of 0.15 mm.
In a case where a polycarbonate resin (SD PORYCA (registered trademark) 301-10, manufactured by Sumika Polycarbonate Co., Ltd.) was used as the resin, the melt-kneading temperature was set to 260° C. and the hot press temperature was set to 230° C.
In a case where a polystyrene resin (manufactured by Sigma-Aldrich Co. LLC) was used as the resin, the melt-kneading temperature was set to 200° C. and the hot press temperature was set to 180° C.
In a case where an acrylic resin (G1000, manufactured by Kuraray Co., Ltd.) was used as the resin, the melt-kneading temperature was set to 180° C. and the hot press temperature was set to 160° C.
A transmittance of the obtained resin film at a wavelength of 1,150 nm was measured with a spectrophotometer, and the measured value was evaluated according to the following standard. In Table 3, it is described in “Evaluation of transmittance at wavelength of 1150 nm”. As the transmittance is lower, the near infrared blocking property is better. […]

| SMILES | Solubility in solvent [1] | Heat stability of resin composition [2] | Near infrared absorbing property [3] | λmax (maximal absorption wavelength) [3] [nm] | solubility in a solvent (in words) [1] | heat stability (in words, kneading evaluation) [4] | stability after dissolving in a solvent (measurement of the absorption spectrum) [1] | heat stability of the resin composition (in words) ([2]; polystyrene resin film) | absorbance at the maximal absorption wavelength on heating ([2]; resin film, heating at 130° C. as printed) |
| --- | --- | --- | --- | --- | --- | --- | --- | --- | --- |
| Cc1ccc(N(c2ccc(C)cc2)c2ccc([N+](=C3C=CC(=[N+](c4ccc(N(c5ccc(C)cc5)c5ccc(C)cc5)cc4)c4ccc(N(c5ccc(C)cc5)c5ccc(C)cc5)cc4)C=C3)c3ccc(N(c4ccc(C)cc4)c4ccc(C)cc4)cc3)cc2)cc1 [A-35] | A (1 g or more of the compound was stably dissolved in 300 g of MEK) | A (absorbance reduction rate of Amax was less than 5%) | A (Amax was 1,150 nm or more) | – | – | – | – | – | – |
| Cc1ccc(N(c2ccc(C)cc2)c2ccc([N+](=C3C=CC(=[N+](c4ccc(N(c5ccc(C)cc5)c5ccc(C)cc5)cc4)c4ccc(N(c5ccc(C)cc5)c5ccc(C)cc5)cc4)C=C3)c3ccc(N(c4ccc(C)cc4)c4ccc(C)cc4)cc3)cc2)cc1.c1ccc([B-](c2ccccc2)(c2ccccc2)c2ccccc2)cc1.c1ccc([B-](c2ccccc2)(c2ccccc2)c2ccccc2)cc1 [A-36] | A (1 g or more of the compound was stably dissolved in 300 g of MEK) | A (absorbance reduction rate of Amax was less than 5%) | A (Amax was 1,150 nm or more) | 1215 | – | – | – | – | – |
| C1=CC(=[N+](c2ccc(N(c3ccccc3)c3ccccc3)cc2)c2ccc(N(c3ccccc3)c3ccccc3)cc2)C=CC1=[N+](c1ccc(N(c2ccccc2)c2ccccc2)cc1)c1ccc(N(c2ccccc2)c2ccccc2)cc1 [Comparative compound 1, reference compound] | B (1 g was not dissolved in 300 g of MEK) | X | A (Amax was 1,150 nm or more) | 1230 | inferior | – | – | – | – |
| Cc1ccc(N(c2ccc(C)cc2)c2ccc([N+](=C3C=CC(=[N+](c4ccc(N(c5ccc(C)cc5)c5ccc(C)cc5)cc4)c4ccc(N(c5ccc(C)cc5)c5ccc(C)cc5)cc4)C=C3)c3ccc(N(c4ccc(C)cc4)c4ccc(C)cc4)cc3)cc2)cc1 [Comparative compound 2, reference compound] | X | D (absorbance reduction rate of Amax was 50% or more) | A (Amax was 1,150 nm or more) | 1250 | – | low | decomposed | – | – |
| CCCCN(CCCC)c1ccc(N(c2ccc(N(CCCC)CCCC)cc2)c2ccc([N+](=C3C=CC(=[N+](c4ccc(N(c5ccc(N(CCCC)CCCC)cc5)c5ccc(N(CCCC)CCCC)cc5)cc4)c4ccc(N(c5ccc(N(CCCC)CCCC)cc5)c5ccc(N(CCCC)CCCC)cc5)cc4)C=C3)c3ccc(N(c4ccc(N(CCCC)CCCC)cc4)c4ccc(N(CCCC)CCCC)cc4)cc3)cc2)cc1.[F][Sb-]([F])([F])([F])([F])[F].[F][Sb-]([F])([F])([F])([F])[F] [Comparative compound 3, reference compound] | X | D (absorbance reduction rate of Amax was 50% or more) | B (Amax was less than 1,150 nm) | 1051 | – | low | decomposed | – | – |
| CCCCN(CCCC)c1ccc([N+](=C2C=CC(=[N+](c3ccc(N(CCCC)CCCC)cc3)c3ccc(N(CCCC)CCCC)cc3)C=C2)c2ccc(N(CCCC)CCCC)cc2)cc1.[F][Sb-]([F])([F])([F])([F])[F].[F][Sb-]([F])([F])([F])([F])[F] [Comparative compound 4, reference compound] | A (1 g or more of the compound was stably dissolved in 300 g of MEK) | D (absorbance reduction rate of Amax was 50% or more) | B (Amax was less than 1,150 nm) | 1100 | favorable | low | – | low | significantly reduced |
